Assay results taken from EP3046573B1, “AMYLIN ANALOGUES” (Zealand Pharma A/S, priority 2013, dated 2015).
Like-named read-outs stand apart in the source and are kept apart here. Numbered stars: 1 amine (or outer) side, 2 acyl side, 3 side chain; on linkers, the order of the positions; unused ones are H or OH. Bridge positions count the residues as written; N and C are the ends. Square brackets hold non-standard residues; d marks the D form. Peptide text beside a SMILES is read from it. * marks the point of attachment. C20 diacid = O=C(O)CCCCCCCCCCCCCCCCCCC(=O)*; γGlu = O=C(O)[C@H](CCC(=O)[*:2])N[*:1]; NMeI = CC[C@H](C)[C@H](NC)C(=O)O; Sar = CNCC(=O)O

Tests used:
HFD-fed rats = assay: Development of obesity in rats fed on a high-fat diet (HFD); type: in vivo, Male Sprague Dawley rats
Protocol: (§1) Whole-blood glucose levels were determined on tail-vein blood samples by the Biosen (EKF Diagnostic, Germany) enzyme-based electrode method. Blood samples were analyzed for glycated hemoglobin (HbA1c) using a Cobas c111 analyzer (Roche Diagnostics, Mannheim, Germany). Plasma insulin levels were measured using a Meso Scale Discovery (MSD) system (Rockville, MD, USA). Liver fat content was determined by magnetic resonance (MR) scanning using an Echo systems MR scanner. Fat depots were measured by weighing of excised fat.
Male Sprague Dawley rats obtained from Taconic A/S, Denmark, were used in this study. The animals arrived at least 7 days before the study start to allow acclimatization to experimental conditions. From arrival and throughout the study, the rats were housed in groups of 2 (n = 2) in a light-, temperature- and humidity-controlled room (reversed 12/12 h light/dark cycle: lights turned off during day-time and on during night-time; temperature 20-22°C; relative humidity 50-80%) and maintained on a HFD (60% of total energy from fat, D12492, Research Diet Inc., New Brunswick, USA) for 2 weeks. Animals had access ad libitum to water (domestic quality tap water with citric acid added to pH ∼ 3.6) during the entire study.The rats were stratified according to body weight (primary) and % body weight gain from the beginning of feeding with HFD (secondary), and treated for 4 weeks with Compound 18 [1, 5 and 30 nmol/kg sc, once weekly (QW)] and Compound 18 (5 nmol/kg sc, every 4th day), and with comparison/reference compounds NN96 (a pramlintide analogue, see Example 5; 30 nmol/kg sc, QW) and the marketed human GLP-1 receptor agonist liraglutide [50 nmol/kg sc, twice daily (bid)], respectively.
Post-hoc Dunnett's multiple comparison tests were conducted. When appropriate, the two-way ANOVA test was used followed by Bonferroni post tests; p < 0.05 was in all cases considered statistically significant.
The preventive effects of Compound 18 of the present invention on the development of obesity were investigated by measurement of body weight, food intake, water intake, blood glucose levels, plasma insulin levels, liver fat mass and fat depots.

[1] = tested on: male Zucker diabetic fatty (ZDF) rats; assay: Efficacy testing: glycemic control in Zucker diabetic fatty rats; type: in vivo
Protocol: as §1
84 male Zucker diabetic fatty (ZDF) rats (9-10 weeks of age) were used in this study. The animals were housed in groups of n = 2. Stratification of the animals was based on non-fasting blood glucose (primary), changes in non-fasting blood glucose measured from the arrival of the animals until one week before the initiation of the study (secondary) and body weight (tertiary). The animals were further divided into two "teams" with a pair-fed group (group 2) allocated to team 2. Animals from group 2 were pair-fed in order to compare between the contribution made by reduced food intake and by drug-induced effects on glycemic control. The amount of food eaten by the animals treated with Compound 82 (30 nmol/kg, team 1) each day was determined, and the same amount was given to a vehicle-treated pair-fed group of animals the following day.
Rats were treated for 4 weeks with Compound 82 (3, 30 and 100 nmol/kg, sc, every (ev.) 5th day), Compound 18 (30 nmol/kg sc, every 5th day), or the GLP-1 analogue liraglutide (40 nmol/kg sc, twice daily (bid)).
The effects of the compounds on glycemic control were investigated by measurement of non-fasting and fasting blood glucose levels and HbA1c levels.
Statistical analyses were performed using GraphPad™ Prism version 5. The measured parameters were compared using one- way ANOVA followed by Dunnett's multiple comparison test. Comparison between the pair-fed vehicle-treated group and the Compound 82 (30 nmol/kg) group was done using Student's two-tailed and unpaired t-test. Differences were considered statistically significant at p < 0.05.

[2] = Pharmacokinetics of test compounds in mice; type: in vivo; conditions: female, NMRI, mouse, plasma; for half-life: 100 nmol/kg (Pramlintide 400 nmol/kg)
Protocol: NMRI mice (supplier: Taconic; females with a body weight of approximately 25 g) were given either a single subcutaneous (sc) bolus or a single intravenous (iv) bolus of each peptide to be tested.
Following sc administration of test peptide (Compound 176, 1 or 18) (100 nmol/kg), blood samples were drawn 0.5, 2, 4, 8, 18, 40 and 56 hours post-dosing by eye bleeding. Following iv administration of Compound 176, 1 or 18 (100 nmol/kg), blood samples were drawn 0.08, 0.17, 0.5, 2, 8, 18 and 30 hours post-dosing by eye bleeding. The dosing vehicle used for each test peptide was a mannitol-containing histidine buffer (pH 7.0).
Pramlintide (400 nmol/kg) was also administered as a single sc bolus or as a single iv bolus to mice. Following sc administration, blood samples were drawn 5, 15, 20, 30, 60, 120, 180 and 240 minutes post-dosing by sublingual bleeding. Following iv administration, blood samples were drawn 5, 10, 15, 30, 60, 120, 180, and 240 minutes post-dosing by sublingual bleeding. The dosing vehicle used for Pramlintide was a mannitol-containing acetate buffer (pH 4.0).
Blood samples were taken from two mice at each time point, i.e. 14-16 mice were included for each compound. The mice were euthanized immediately after blood sampling by cervical dislocation. Plasma samples were analyzed after solid-phase extraction (SPE) by liquid chromatography mass spectrometry (LC-MS/MS). Mean plasma concentrations were used for calculation of the pharmacokinetic parameters using the non-compartmental approach in Phoenix WinNonlin 6.3.
Plasma terminal elimination half-life (t½) was determined as In(2)/λz, where λz is the magnitude of the slope of the log linear regression of the log concentration versus time profile during the terminal phase.
Bioavailability was determined as AUCinf (sc) / AUCinf (iv) x 100, where AUCinf is the area under the plasma concentration - time curve extrapolated to infinity (AUCinf = AUClast + Clast/λz, where Clast is the last observed plasma concentration).

CC[C@H](C)[C@@H](C(=O)N[C@@H](CC(C)C)C(=O)N[C@@H](CO)C(=O)N[C@@H](CO)C(=O)N[C@H](C(=O)N[C@@H](CC(N)=O)C(=O)N[C@H](C(=O)NCC(=O)N[C@@H](CO)C(=O)N[C@@H](CC(N)=O)C(=O)N[C@H](C(=O)N1CCC[C@H]1C(N)=O)[C@@H](C)O)C(C)C)[C@@H](C)O)N(C)C(=O)[C@H](C)NC(=O)CN(C)C(=O)[C@H](Cc1ccccc1)NC(=O)[C@H](CC(N)=O)NC(=O)[C@H](CC(N)=O)NC(=O)[C@H](CO)NC(=O)[C@H](CO)NC(=O)[C@H](CCCNC(=N)N)NC(=O)[C@H](Cc1c[nH]cn1)NC(=O)[C@H](CC(C)C)NC(=O)[C@H](Cc1ccccc1)NC(=O)[C@H](CCC(=O)O)NC(=O)[C@H](C)NC(=O)[C@H](CC(C)C)NC(=O)[C@H](CCCNC(=N)N)NC(=O)[C@H](CCC(N)=O)NC(=O)[C@@H](NC(=O)[C@H](C)NC(=O)[C@@H]1CSSC[C@H](NC(=O)[C@H](CCCNC(=N)N)NC(=O)CC[C@H](NC(=O)CCCCCCCCCCCCCCCCCCC(=O)O)C(=O)O)C(=O)N[C@@H](CC(N)=O)C(=O)N[C@@H]([C@@H](C)O)C(=O)N[C@@H](C)C(=O)N[C@@H]([C@@H](C)O)C(=O)N1)[C@@H](C)O [Compound 18, [19CD]-isoGlu-RC()NTATC()ATQRLAEFLHRSSNNF-Gly(Me)-A-Ile(Me)-LSSTNVGSNTP-NH2] ({C20 diacid-γGlu}-RCNTATCATQRLAEFLHRSSNNF[Sar]A[NMeI]LSSTNVGSNTP-NH2; disulfide 2-7)
anti-obesity effects with administration every 4th day (HFD-fed rats; 5 nmol/kg sc, every 4th day, 4 weeks): effects similar to those of Compound 18 dosed QW | mass of fat depots (HFD-fed rats; 4 weeks treatment): a decrease in mass of fat depots | food intake (HFD-fed rats; 4 weeks treatment, vs. vehicle): significantly decreased food intake | terminal liver fat mass (HFD-fed rats; 5 and 30 nmol/kg, QW, 4 weeks): a decrease in terminal liver fat mass | terminal HbA1c levels ([1]; 30 nmol/kg sc every 5th day, 4 weeks, vehicle 8.7 ± 0.2): 5.4 ± 0.1% | non-fasting blood glucose levels on day 13 and on day 27 ([1]; compared to the vehicle treated rats, P < 0.001): significantly lower | fasting blood glucose levels ([1]; terminal, Compound 82 3, 30, and 100 nmol/kg, Compound 18 30 nmol/kg, P < 0.001 vs. vehicle): significantly decreased | bioavailability ([2]; AUCinf (sc) / AUCinf (iv) x 100, 100 nmol/kg (Pramlintide 400 nmol/kg)): 79% | half-life ([2]; single iv bolus, read-out: t½ (hours) iv (converted)): 20.8 h | half-life ([2]; single sc bolus, read-out: t½ (hours) sc (converted)): 22.8 h
